“And” between values parts separate entries of the source, which are not always exact repeats. Equal entries are not always repeated. Structures can show the parent of a compound that is named as a salt. Bounds are passed on as bounds.

For data set [1] the following is noted: acid; cited from earlier work.
The nature of data set [2]: pKa of the free base compound. The data set is classed as physicochemical.
Data set [3] in a line: Solubility study of Example 0 in solvents (volumes needed to dissolve the solid). The data set is classed as physicochemical. On the procedure:
Previously a solubility study was performed with compound Example 0. The results are shown in Table 1 wherein number of volumes needed to dissolve the solid in the corresponding solvent at room temperature is shown. If at 50 volumes, dissolution was not observed at room temperature, mixture was heated to reflux temperature.

Data set [4] in a line: Thermodynamic solubility at pH 7.4. The data set is classed as physicochemical. As to conditions: maleate. On the procedure: General protocol for thermodynamic solubility at pH 7.4 and pH 2 are described. • A) Thermodynamic Solubility at pH 7.4
Phosphate buffer at pH 7.4 (25 mM) was prepared as follows:
A solution 25 mM of Na2HPO4.12H2O (for 1 L of water, weight 8.96 g) was prepared
A solution 25 mM de KH2PO4 (for 1 L of water weight 3.4 g) was prepared.
Disodium phosphate solution (812 mL) and potassium phosphate (182 mL) solution were mixed and pH checked to be 7.4.
Equipment • Precision analytical balance Mettler Toledo AT20. • Analytical balance Mettler Toledo PJ300. • Liquid chromatograph Waters Alliance 2695. • Stirrer Thermomixer Control of Eppendorf a 25° C. y 1250 rpm • pHmeter with combined semi-micro electrode.
Around 4 mg of compound in an HPLC vial (by duplicate) was dissolved in 1 mL of buffer solution. After stirring in Thermomixer Comfort system for 24 hours at 25° C., in order to achieve thermodynamic equilibrium, solution was centrifuged at 3000 rpm for 15 minutes.
The resulting upper layer was collected with a glass pipette and transferred to the HPLC vials in order to inject them (10 μL) directly to the HPLC instrument.
Standards were made in methanol to ensure overall compound solubility. Preparation of standard calibrators is illustrated below:
Sol.A: 4 mg in 1 mL methanol (4000 μg/mL)
Sol.B: 0.5 mL Sol.A to 5 mL with methanol (400 μg/mL)
Sol.C: 1 mL Sol.B to 10 mL with methanol (40 μg/mL)
Sol.D: 5 mL […] to 50 mL with methanol (4 μg/mL)
Sol.E: 4 mL Sol.D to 10 mL with methanol (1.6 μg/mL)
Calibration curve was created through 10 μL injection of standards, beginning with the more diluted standard. Blanks were also injected, for checking the absence of contamination.
10 μl of test substance were injected, by duplicate, and the average peak area interpolated in the calibration curve (see Tables Examples below).
Chromatographic Conditions • Column: XBridge C18 (or similar) 2.5 μm 4.6×50 mm • Temperature: 35° C. • Mobile phase: ACN/ammonium bicarbonate 10 mM. • Gradient: 0-3.5 min: from 15% CAN to 95% CAN • 3.5-5 min: 95% ACN • 5-6 min: 95 a 15% ACN • 6-8 min: 15% ACN • Flow: 1.5 mL/min • Detection: around the maximum UV wavelength. • B) Thermodynamic Solubility at pH 2

Data set [5] in a line: Pharmacokinetics after single oral administration to male Wistar rat. Type of data set: in vivo. As to the method:
The pharmacokinetics of Example 1 and 2 were tested using the following protocol:
Male Wistar rats weighing 250 to 300 g (±20) supplied by Harlan were used. Water and food was available ad libitum throughout the study.
Administration and Sample Collection
Two rats (R1 and R2) were used in the pharmacokinetic oral studies.
A single dose of tested compound was administered by oral gavage [10 mg/kg as free base (Example 0)] in 0.5% hydroxypropyl methylcellulose (1 mg/ml). From each rat, serial blood samples were collected at 15 and 30 min, 1, 2, 3, 5, 7 and 24 h.
Blood was collected from the saphenous veins into heparinized tubes. Plasma was obtained by blood centrifugation at 4° C. and 2280×g for 10 min and kept at −80° C. until analysis.
Tested compound concentration in plasma samples was determined by least-squares linear regression using a ten-point calibration curve. The calibration curve was prepared in blank plasma from a working solution of 1 mg/ml in DMSO.
Samples were thawed at room temperature on the day of analysis. After plasma protein precipitation of samples and calibration standards with acetonitrile (1:4.3; v/v), the mixture was vortexed and centrifuged (4° C. and 16090×g for 10 min).
Tested compound plasma concentrations were determined by high performance liquid chromatography-triple quadrupole mass spectrometry (HPLC-MS/MS) through the following method:
Column: Atlantis® T3 column (2.1×100 mm, 3 μm) (Waters).
Mobile phase: A: 0.0155% Formic water • B: 0.0155% Formic Acetonitrile
Autosampler wash: Solvent 1:Acetonitrile • Solvent 2: 5% Acetonitrile+95% Water
Standard pharmacokinetic parameters, such as area under the curve (AUC), peak plasma concentration (Cmax), time to peak concentration (tmax), oral bioavailability (F), total plasma clearance (Cl), volume of distribution at steady-state (Vss), mean residence time (MRT) and terminal half-life (t1/2), were determined by non-compartmental analysis of the plasma concentration-time curves (Phoenix v. 6.2.1.51, Pharsight, C A).

[6] abbreviates: animal 1, 10 mg/kg oral, maleate.
The mark [7] stands for this setting: animal 2, 10 mg/kg oral, maleate.
Where [8] appears, read: mean of 2 rats, 10 mg/kg oral, listed as example 2, maleate, 10 mg/kg.
The mark [9] stands for this setting: mean of 2 rats, 10 mg/kg oral, maleate, 10 mg/kg.

The melting point is the temperature, or range, at which the solid turns liquid. Take `CC(=O)N1CCN(CCOCc2ccn(-c3ccc(F)c(F)c3)n2)CC1` (as salt: hydrochloride) [Example 1]: the melting point is 155 to 157 °C.

`CC(=O)N1CCN(CCOCc2ccn(-c3ccc(F)c(F)c3)n2)CC1` (as salt: maleate) [Example 2] registered a melting point of 160 to 162 °C.

For `O=S(=O)(O)c1ccccc1` [Benzensulphonic acid], in data set [1], the pKa1 is 0.7.

`CCCCCCCCCC(=O)O` [Capric acid]: the pKa1 in data set [1] was 4.9.

Turning to `CCCCCC(=O)O` [Caproic acid], in data set [1], the pKa1 is 4.88.

On to `CCCCCCCC(=O)O` [Caprylic acid], for which the pKa1 in data set [1] is reported as 4.89.

With `CCS(=O)(=O)O` [Ethanesulfonic acid], the pKa1 in data set [1] is on record as 2.05.

A word on the pKa: it is the negative logarithm of the acid dissociation constant. Higher therefore signals a weaker acid or stronger base. In data set [2], `CC(=O)N1CCN(CCOCc2ccn(-c3ccc(F)c(F)c3)n2)CC1` [Example 0, 1-(4-(2-((1-(3,4-difluorophenyl)-1H-pyrazol-3-yl)methoxy)ethyl)piperazin-1-yl)ethanone] showed a pKa of 6.37. Also, the “number of volumes needed to dissolve the solid” value is 3 volumes in data set [3] (CH2Cl2, room temperature); 15 volumes in data set [3] (CH3CN, room temperature); 4 volumes in data set [3] (EtOH, room temperature); > 50^[1] volumes in data set [3] (H2O, room temperature, heated to reflux at 50 volumes, no dissolution observed); 17 volumes in data set [3] (MIBK, room temperature); 4 volumes in data set [3] (THF, room temperature).

Broadly, the AUC is concentration integrated over time. A lower AUC goes with less exposure. Broadly, the Cmax is the highest concentration seen after dosing. Regarding `CC(=O)N1CCN(CCOCc2ccn(-c3ccc(F)c(F)c3)n2)CC1` [Example 2, maleate], the “Conc. Mean” value in data set [4] (pH 7.4, mean of 4 injections) stood at 4468.706 µg/mL. In addition, in data set [4] (pH 7.4, single HPLC injections of duplicate vials), the Conc. is 4593.8 µg/mL and 4408.7 µg/mL and 4338.8 µg/mL and 4533.6 µg/mL. In addition, the AUC in data set [5] (setting [6]) is 2227 ng·h/mL; in data set [5] (setting [7]), 1768 ng·h/mL; in data set [5] (setting [8]), about 2000 ng·h/mL; in data set [5] (setting [9]), 1997 ng·h/mL. For the same compound, the peak concentration (Cmax) was 1.386 µg/mL in data set [5] (setting [6]) and 1.039 µg/mL in data set [5] (setting [7]). For the same compound, the values for the t1/2 in data set [5] (setting [6]) and in data set [5] (setting [7]) were 102 min and 72 min, respectively. Further, the F in data set [5] (animal 1, 10 mg/kg oral, mean AUC after i.v. administration used for calculation, maleate) was 50%; in data set [5] (animal 2, 10 mg/kg oral, mean AUC after i.v. administration used for calculation, maleate), 40%. Moreover, the tmax in data set [5] (setting [7]) was 30 min; in data set [5] (setting [8]), 22.8 min; in data set [5] (setting [9]), 24 min. The “t1/2 (terminal half-life)” value in data set [5] (setting [9]) was 90 min. Moreover, in data set [5] (mean of 2 rats, 10 mg/kg oral, mean AUC after i.v. administration used for calculation, maleate, 10 mg/kg), the “F (oral bioavailability)” value is 45%. The Plasma concentration in data set [5] (rat R1, 0.5 h, 10 mg/kg oral, maleate, 10 mg/kg) was 1.251 µg/mL; in data set [5] (rat R1, 1 h, 10 mg/kg oral, maleate, 10 mg/kg), 0.907 µg/mL; in data set [5] (rat R1, 2 h, 10 mg/kg oral, maleate, 10 mg/kg) it was 0.289 µg/mL; in data set [5] (rat R1, 3 h, 10 mg/kg oral, maleate, 10 mg/kg), 0.157 µg/mL; in data set [5] (rat R1, 5 h, 10 mg/kg oral, maleate, 10 mg/kg), 0.045 µg/mL; in data set [5] (rat R1, 7 h, 10 mg/kg oral, maleate, 10 mg/kg), 0.041 µg/mL. Also, the Plasma concentration in data set [5] (rat R2, 0.5 h, 10 mg/kg oral, maleate, 10 mg/kg) turned out to be 1.039 µg/mL; in data set [5] (rat R2, 1 h, 10 mg/kg oral, maleate, 10 mg/kg) it was 0.639 µg/mL; in data set [5] (rat R2, 2 h, 10 mg/kg oral, maleate, 10 mg/kg) it was 0.317 µg/mL; in data set [5] (rat R2, 3 h, 10 mg/kg oral, maleate, 10 mg/kg) it was 0.095 µg/mL; in data set [5] (rat R2, 5 h, 10 mg/kg oral, maleate, 10 mg/kg), 0.075 µg/mL; in data set [5] (rat R2, 7 h, 10 mg/kg oral, maleate, 10 mg/kg) it was 0.013 µg/mL.

Regarding `Br` [Hydrobromic acid], in data set [1], the pKa1 result is on record as “Strong”.

Take `O=[N+]([O-])O` [Nitric acid]: the pKa1 entry in data set [1] is given as “Strong”.

Source of the values: US10640468B2, “1-(4-(2-((1-(3,4-difluorophenyl)-1H-pyrazol-3-Yl)methoxy)ethyl)piperazin-1- Yl)ethanone salts” (ESTEVE PHARMACEUTICALS S.A., priority 2015, dated 2020).
